Experimental findings from patent publication US8163779B2, “Glucokinase activators” (Takeda San Diego, Inc., priority 2006, dated 2012) are described below.

For this experiment, the target named is T1, glucokinase (GK) (Homo sapiens, UniProt P35557).
T1 construct: I.D. No. 1 corresponds to residues 12-465 of glucokinase; made in house; host or cells: E. coli DH10b-T1r
T1 sequence (P35557 with tags, fused parts or gaps isoform P35557-2): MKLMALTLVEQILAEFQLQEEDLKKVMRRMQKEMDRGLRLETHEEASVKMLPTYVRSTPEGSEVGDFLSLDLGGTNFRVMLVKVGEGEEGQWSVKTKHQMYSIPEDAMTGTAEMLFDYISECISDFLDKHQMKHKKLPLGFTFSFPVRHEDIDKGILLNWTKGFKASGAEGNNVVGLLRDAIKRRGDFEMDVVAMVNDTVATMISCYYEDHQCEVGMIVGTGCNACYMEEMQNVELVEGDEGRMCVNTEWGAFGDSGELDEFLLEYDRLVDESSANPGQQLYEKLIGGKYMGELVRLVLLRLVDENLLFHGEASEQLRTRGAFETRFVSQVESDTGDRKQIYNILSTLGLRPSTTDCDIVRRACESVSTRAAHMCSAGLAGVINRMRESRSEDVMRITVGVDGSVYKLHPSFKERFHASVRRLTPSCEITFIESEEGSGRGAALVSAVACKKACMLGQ
Nature of the experiment: enzymatic glucokinase activity assay (ATP consumption, KinaseGlo luminescence). It counts as biochemical. To be noted: recombinant GK residues 12-465; 5 μM ATP, 5 mM Glucose; Kact = concentration that displays 50% of the maximal increase in GK activity; read-out: pKact. In outline:
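Recombinant human glucokinase expressed in E. coli was run in 25 mM Hepes pH 7.2 with 10 mM MgCl2, 1 mM DTT, 5 μM ATP, 5 mM glucose and 2% DMSO for 60 min at room temperature. Remaining ATP was read by KinaseGlo luminescence; pKact came from non-linear curve fits.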

A value given as a limit tells only on which side of the number the result lay.

For `Cc1cc(N2CCCC2)cc(=O)n1C(CC1CCCCC1)C(=O)Nc1nccs1` (stereo not drawn) [Example 87, 3-cyclohexyl-2-(6-methyl-2-oxo-4-(pyrrolidin-1-yl)pyridin-1(2H)-yl)-N-(thiazol-2-yl)propanamide], the EC50 was greater than 15.8 µM.
On to `Cc1cc(S(=O)(=O)c2cc(C)n(C(CC3CCCCC3)C(=O)Nc3ncc(Cl)s3)c(=O)c2)c(C)o1` (stereo not drawn) [Example 83, N-(5-chlorothiazol-2-yl)-3-cyclohexyl-2-(4-(2,5-dimethylfuran-3-ylsulfonyl)-6-methyl-2-oxopyridin-1(2H)-yl)propanamide], for which the EC50 is less than 1.58 µM.
Consider `Cc1ccc(S(=O)(=O)c2cc(C)n(C(CC(C)(C)C)C(=O)Nc3ncc(F)s3)c(=O)c2)cc1` (stereo not drawn) [Example 43, N-(5-fluorothiazol-2-yl)-4,4-dimethyl-2-(6-methyl-2-oxo-4-tosylpyridin-1(2H)-yl)pentanamide], for which the EC50 fell in the range of 1.58 to 15.8 µM.
As for `Cc1cc(S(=O)(=O)c2cc(Cl)sc2Cl)cc(=O)n1C(CC1CCOCC1)C(=O)Nc1ncc(Cl)s1` (stereo not drawn) [Example 119, N-(5-chlorothiazol-2-yl)-2-(4-(2,5-dichlorothiophen-3-ylsulfonyl)-6-methyl-2-oxopyridin-1(2H)-yl)-3-(tetrahydro-2H-pyran-4-yl)propanamide], the EC50 lay within 1.58 to 15.8 µM.
Regarding `O=C(Nc1ncc(Cl)s1)[C@@H](CC1CCOCC1)n1ccc(S(=O)(=O)C2CCCC2)cc1=O` [Example 31, (R)-N-(5-chlorothiazol-2-yl)-2-(4-(cyclopentylsulfonyl)-2-oxopyridin-1(2H)-yl)-3-(tetrahydro-2H-pyran-4-yl)propanamide], the EC50 is greater than 15.8 µM.
On to `Cc1cc(S(=O)(=O)C2CC2)cc(=O)n1[C@@H](CC1CCCC1)C(=O)Nc1cnccn1` [Example 171, (S)-3-cyclopentyl-2-(4-(cyclopropylsulfonyl)-6-methyl-2-oxopyridin-1(2H)-yl)-N-(pyrazin-2-yl)propanamide], for which the EC50 was 1.58 to 15.8 µM.
With `Cc1c(S(=O)(=O)C2CCCC2)cc(=O)n([C@@H](CC2CCOCC2)C(=O)Nc2ncc(F)s2)c1C` [Example 151, (S)-2-(4-(cyclopentylsulfonyl)-5,6-dimethyl-2-oxopyridin-1(2H)-yl)-N-(5-fluorothiazol-2-yl)-3-(tetrahydro-2H-pyran-4-yl)propanamide] the figure was less than 1.58 µM.
For the compound `Cc1cc(S(=O)(=O)Cc2ccco2)cc(=O)n1[C@H](CC1CCOCC1)C(=O)Nc1ncc(Cl)s1` [Example 142, (R)-N-(5-chlorothiazol-2-yl)-2-(4-(furan-2-ylmethylsulfonyl)-6-methyl-2-oxopyridin-1(2H)-yl)-3-(tetrahydro-2H-pyran-4-yl)propanamide], the EC50 is greater than 15.8 µM.
Consider `Cc1cc(-c2ccc(F)c(Cl)c2)cc(=O)n1[C@@H](CC1CCCCC1)C(=O)Nc1nccs1` [Example 106, (S)-2-(4-(3-chloro-4-fluorophenyl)-6-methyl-2-oxopyridin-1(2H)-yl)-3-cyclohexyl-N-(thiazol-2-yl)propanamide], for which the EC50 is greater than 15.8 µM.
In the case of `COc1ccc2nc(NC(=O)C(CC3CCOCC3)n3ccc(S(=O)(=O)CCCO)cc3=O)sc2n1` (stereo not drawn) [Example 67, 2-(4-(3-hydroxypropylsulfonyl)-2-oxopyridin-1(2H)-yl)-N-(5-methoxythiazolo[5,4-b]pyridin-2-yl)-3-(tetrahydro-2H-pyran-4-yl)propanamide], the EC50 was greater than 15.8 µM.
With `COc1ccc2nc(NC(=O)[C@@H](CC3CCOCC3)n3ccc(S(=O)(=O)C4CC4)cc3=O)sc2n1` [Example 48, (R)-2-(4-(cyclopropylsulfonyl)-2-oxopyridin-1(2H)-yl)-N-(5-methoxythiazolo[5,4-b]pyridin-2-yl)-3-(tetrahydro-2H-pyran-4-yl)propanamide] the figure was 1.58 to 15.8 µM.
With `COCCC(C)(C)S(=O)(=O)c1ccn(C(CC2CCOCC2)C(=O)Nc2nc3ccc(OC)nc3s2)c(=O)c1` (stereo not drawn) [Example 88, 2-(4-(4-methoxy-2-methylbutan-2-ylsulfonyl)-2-oxopyridin-1(2H)-yl)-N-(5-methoxythiazolo[5,4-b]pyridin-2-yl)-3-(tetrahydro-2H-pyran-4-yl)propanamide] the figure was 1.58 to 15.8 µM.
Then `O=C(Nc1nc2cccnc2s1)[C@@H](CC1CCOCC1)n1ccc(S(=O)(=O)C2CC2)cc1=O` [Example 51, (R)-2-(4-(cyclopropylsulfonyl)-2-oxopyridin-1(2H)-yl)-3-(tetrahydro-2H-pyran-4-yl)-N-(thiazolo[5,4-b]pyridin-2-yl)propanamide], with greater than 15.8 µM.
In the case of `Cc1cc(S(=O)(=O)C2CC2)cc(=O)n1[C@@H](CC1CCCC1)C(=O)Nc1ncc(Cl)s1` [Example 183, (S)-N-(5-chlorothiazol-2-yl)-3-cyclopentyl-2-(4-(cyclopropylsulfonyl)-6-methyl-2-oxopyridin-1(2H)-yl)propanamide], the EC50 was less than 1.58 µM.
Then `CNS(=O)(=O)c1cccc(-c2cc(C)n([C@@H](CC3CCCCC3)C(=O)Nc3nccs3)c(=O)c2)c1` [Example 114, (S)-3-cyclohexyl-2-(6-methyl-4-(3-(N-methylsulfamoyl)phenyl)-2-oxopyridin-1(2H)-yl)-N-(thiazol-2-yl)propanamide], with 1.58 to 15.8 µM; and `Cc1occc1S(=O)(=O)c1cc(C)n([C@H](CC2CCOCC2)C(=O)Nc2ncc(Cl)s2)c(=O)c1` [Example 65, (R)-N-(5-chlorothiazol-2-yl)-2-(6-methyl-4-(2-methylfuran-3-ylsulfonyl)-2-oxopyridin-1(2H)-yl)-3-(tetrahydro-2H-pyran-4-yl)propanamide], with greater than 15.8 µM.
Regarding `CS(=O)(=O)c1ccn([C@@H](CC2CCOCC2)C(=O)Nc2ncc(Cl)s2)c(=O)c1` [Example 23, (S)-N-(5-chlorothiazol-2-yl)-2-(4-(methylsulfonyl)-2-oxopyridin-1(2H)-yl)-3-(tetrahydro-2H-pyran-4-yl)propanamide], the EC50 lay in the range of 1.58 to 15.8 µM.
As to `Cc1cc(S(=O)(=O)C2CCCC2)cc(=O)n1[C@@H](CC1CCOCC1)C(=O)Nc1ccc(Cl)cn1` [Example 166, (S)-N-(5-chloropyridin-2-yl)-2-(4-(cyclopentylsulfonyl)-6-methyl-2-oxopyridin-1(2H)-yl)-3-(tetrahydro-2H-pyran-4-yl)propanamide], the EC50 is less than 1.58 µM.
Regarding `O=C(Nc1ncc(Cl)s1)[C@H](CC1CCOCC1)n1cc(Cl)c(S(=O)(=O)C2CC2)cc1=O` [Example 196, (S)-2-(5-chloro-4-(cyclopropylsulfonyl)-2-oxopyridin-1(2H)-yl)-N-(5-chlorothiazol-2-yl)-3-(tetrahydro-2H-pyran-4-yl)propanamide], the EC50 fell in the range of 1.58 to 15.8 µM.
With `Cc1cc(S(=O)(=O)C2CCS(=O)(=O)CC2)cc(=O)n1[C@@H](CC1CCCCC1)C(=O)Nc1ncc(Cl)s1` [Example 187, (S)-N-(5-chlorothiazol-2-yl)-2-(4-(1,1-dioxotetrahydrothiopyran-4-ylsulfonyl)-6-methyl-2-oxopyridin-1(2H)-yl)-3-cyclohexyipropanamide] the figure was 1.58 to 15.8 µM; with `O=C(Nc1nc2cccnc2s1)[C@H](CC1CCOCC1)n1ccc(S(=O)(=O)C2CC2)cc1=O` [Example 52, (S)-2-(4-(cyclopropylsulfonyl)-2-oxopyridin-1(2H)-yl)-3-(tetrahydro-2H-pyran-4-yl)-N-(thiazolo[5,4-b]pyridin-2-yl)propanamide], 1.58 to 15.8 µM; with `Cc1cc(S(=O)(=O)c2cccc(F)c2)cc(=O)n1[C@H](CC1CCOCC1)C(=O)Nc1ncc(F)s1` [Example 190, (R)-2-(4-(3-fluorophenylsulfonyl)-6-methyl-2-oxopyridin-1(2H)-yl)-N-(5-fluorothiazol-2-yl)-3-(tetrahydro-2H-pyran-4-yl)propanamide], greater than 15.8 µM.
In the case of `Cc1cc(-c2cccc(S(C)(=O)=O)c2)cc(=O)n1[C@@H](CC1CCCCC1)C(=O)Nc1nccs1` [Example 126, (S)-3-cyclohexyl-2-(6-methyl-4-(3-(methylsulfonyl)phenyl)-2-oxopyridin-1(2H)-yl)-N-(thiazol-2-yl)propanamide], the EC50 was greater than 15.8 µM.
Turning to `Cc1cc(S(=O)(=O)C2CCCC2)cc(=O)n1[C@@H](CC1CCOCC1)C(=O)Nc1ccc(C(N)=O)cn1` [Example 182, (S)-6-(2-(4-(cyclopentylsulfonyl)-6-methyl-2-oxopyridin-1(2H)-yl)-3-(tetrahydro-2H-pyran-4-yl)propanamido)nicotinamide], the EC50 was in the range of 1.58 to 15.8 µM.
Turning to `Cc1cc(Br)cc(=O)n1[C@@H](CC1CCCCC1)C(=O)Nc1nccs1` [Example 61, (S)-2-(4-bromo-6-methyl-2-oxopyridin-1(2H)-yl)-3-cyclohexyl-N-(thiazol-2-yl)propanamide], the EC50 was greater than 15.8 µM.
Take `Cc1cc(-c2ccc(F)cc2)cc(=O)n1[C@@H](CC1CCCCC1)C(=O)Nc1nccs1` [Example 105, (S)-3-cyclohexyl-2-(4-(4-fluorophenyl)-6-methyl-2-oxopyridin-1(2H)-yl)-N-(thiazol-2-yl)propanamide]: the EC50 was greater than 15.8 µM.
With `Cc1cc(S(=O)(=O)C2CCOCC2)cc(=O)n1[C@@H](CC1CCCC1)C(=O)Nc1ncc(F)s1` [Example 193, (S)-3-cyclopentyl-N-(5-fluorothiazol-2-yl)-2-(6-methyl-2-oxo-4-(tetrahydro-2H-pyran-4-ylsulfonyl)pyridin-1(2H)-yl)propanamide] the figure was 1.58 to 15.8 µM.
